Laboratory results taken from patent US10052321B2, “Nanoparticulate compositions and formulations of piperazine compounds” (Rexahn Pharmaceuticals, Inc., priority 2013, dated 2018).

What was measured:
[1] = Oral bioavailability in animal model studies; format: in vivo
Description: Because of the poor aqueous solubility of 1-(3,5-dimethoxyphenyl)-4-[(6-fluoro-2-methoxyquinoxalin-3-yl)aminocarbonyl]piperazine, production of a submicron suspension needed to be developed as a viable oral delivery option to avoid the need to administer large volumes of a 1-(3,5-dimethoxyphenyl)-4-[(6-fluoro-2-methoxyquinoxalin-3-yl)aminocarbonyl]piperazine solution to achieve the intended dosage levels.

[2] = Solubility in water; format: physicochemical
Description: This poor solubility in water makes it difficult to deliver the compound and related compounds of formula (1) and has limited clinical development, thus creating a need for the development of a formulation suitable for clinical use. The present invention was developed with a goal of obtaining a suitable formulation that can provide a stable suspension of the compound at a concentration of about 100 mg/mL or a dried formulation that could be either delivered orally or used to prepare a stable suspension. While the invention is described and exemplified primarily with respect to 1-(3,5-dimethoxyphenyl)-4-[(6-fluoro-2-methoxyquinoxalin-3-yl)aminocarbonyl]piperazine, it is to be understood that the invention is applicable to other compounds of formula (1).
1-(3,5-Dimethoxyphenyl)-4-[(6-fluoro-2-methoxyquinoxalin-3-yl)aminocarbonyl]piperazine has a very poor solubility in water, less than 0.1 μg/ml, and its solubility was tested in several co-solvents. […] Thus, these classical formulations are not useful in clinical use, although they could be used in some limited purpose in pre-clinical studies.
Particles were crystalline and irregularly shaped. FIG. 1 illustrates particles of 1-(3,5-Dimethoxyphenyl)-4-[(6-fluoro-2-methoxyquinoxalin-3-yl)aminocarbonyl]piperazine at 400× Magnification. […]

[3] = Thermal analysis (TGA / DSC); format: physicochemical
Description: (§1) API morphology can be characterized by optical microscopy (e.g., Olympus BX51 microscope with Clemex JS-2000 controller). Differential scanning calorimetry (e.g., Mettler-Toledo DSC 1) and thermogravimetric analysis (e.g., Mettler-Toledo TGA/DSC 1) can be used to measure the thermal characteristics of the material. Particle size measurements can be made throughout by, for example, laser diffraction (e.g. Horiba LA-950V2), by dispersing the material, either in water, when surfactant is present in the test sample or in a dilute solution of poloxamer when no other dispersant was present.
Mass loss after 220° C. may be attributable to thermal degradation.
Differential scanning calorimetry (see FIG. 4) confirmed the endotherm related to the initial mass loss at 108° C.

[4] = Particle size of unmilled API by laser diffraction; format: physicochemical; conditions: dispersed in aqueous solution of Aerosol OT
Description: as §1
Based on chemical structure, the refractive index of 1-(3,5-dimethoxyphenyl)-4-[(6-fluoro-2-methoxyquinoxalin-3-yl)aminocarbonyl]piperazine was predicted to be 1.637. For particle size measurements, the imaginary component of the refractive index, or the i-value (a unitless factor used by the laser diffraction algorithm to account for the absorption of light by the particles) was determined to be 0.1. Unmilled 1-(3,5-Dimethoxyphenyl)-4-[(6-fluoro-2-methoxyquinoxalin-3-yl)aminocarbonyl]piperazine dispersed readily in an aqueous solution of (Aerosol OT). The median particle size (D50) measured at 13 μm.

oral bioavailability [1]: good oral bioavailability | solubility [2]: < 0.1 µg/mL | solubility in water [2]: practically insoluble | thermal stability ([3]; TGA and DSC data): thermally stable | no indication of decomposition until ([3]; differential scanning calorimetry): 223 °C | median particle size (D50) [4]: 13 μm
SMILES: COc1cc(OC)cc(N2CCN(C(=O)Nc3nc4cc(F)ccc4nc3OC)CC2)c1 [Compound A, 1-(3,5-Dimethoxyphenyl)-4-[(6-fluoro-2-methoxyquinoxalin-3-yl)aminocarbonyl]piperazine]
